How the values were obtained:
Assay type in all cases: biochemical
[1] = molecular target: T1, NUAK2 (h) (Homo sapiens, UniProt Q9H093); assay: NUAK2 enzymatic assay (radiometric, Eurofins); details: full-length recombinant enzyme
T1 construct: This assay was done radiometrically using full-length, recombinant enzyme; purchased Eurofins
T1 sequence (Q9H093 1-628): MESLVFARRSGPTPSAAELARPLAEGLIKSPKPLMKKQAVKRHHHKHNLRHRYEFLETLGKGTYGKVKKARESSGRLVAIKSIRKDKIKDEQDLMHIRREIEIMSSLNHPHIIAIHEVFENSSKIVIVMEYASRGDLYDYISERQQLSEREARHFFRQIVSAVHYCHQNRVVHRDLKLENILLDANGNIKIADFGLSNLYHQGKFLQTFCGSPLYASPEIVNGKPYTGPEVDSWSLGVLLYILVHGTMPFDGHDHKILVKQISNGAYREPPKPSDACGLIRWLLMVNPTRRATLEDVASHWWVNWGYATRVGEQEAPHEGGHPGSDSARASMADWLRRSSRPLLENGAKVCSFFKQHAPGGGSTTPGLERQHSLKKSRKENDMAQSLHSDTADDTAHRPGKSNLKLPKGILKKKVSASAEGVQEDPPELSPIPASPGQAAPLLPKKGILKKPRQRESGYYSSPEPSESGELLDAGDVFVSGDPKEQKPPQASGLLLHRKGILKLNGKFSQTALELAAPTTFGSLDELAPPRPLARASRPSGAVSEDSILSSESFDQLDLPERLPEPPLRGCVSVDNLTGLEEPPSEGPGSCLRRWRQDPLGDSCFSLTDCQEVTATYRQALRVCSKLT
Procedure: (§1) To identify small molecule NUAK inhibitors, a biochemical NUAK2 enzymatic assay were outsourced to Eurofins. This assay was done radiometrically using full-length, recombinant enzyme. NUAK2 (h) was incubated with 8 mM MOPS pH 7.0, 0.2 mM EDTA, 300 μM […], 10 mM magnesium acetate and […] (specific activity and concentration as required). The reaction was initiated by the addition of the Mg/ATP mix. After incubation for 40 minutes at room temperature, the reaction was stopped by the addition of phosphoric acid to a concentration of 0.5%. 10 μL of the reaction was then spotted onto a P30 filtermat and washed four times for 4 minutes in 0.425% phosphoric acid and once in methanol prior to drying and scintillation counting. Compounds were routinely counter-screened against Aurora A and NUAK1. The results are shown in Table 1 where IC50's are reported in the following ranges: A: 0.1-10 nM; B: 11-100 nM; C: 101-1000 nM; D: >1000 nM for the compounds of Formula (I)

[2] = molecular target: T2, Aurora A (Homo sapiens, UniProt O14965); assay: Counter-screen against Aurora A; details: read-out: AUR-A (IC50)
T2 sequence (O14965 1-403): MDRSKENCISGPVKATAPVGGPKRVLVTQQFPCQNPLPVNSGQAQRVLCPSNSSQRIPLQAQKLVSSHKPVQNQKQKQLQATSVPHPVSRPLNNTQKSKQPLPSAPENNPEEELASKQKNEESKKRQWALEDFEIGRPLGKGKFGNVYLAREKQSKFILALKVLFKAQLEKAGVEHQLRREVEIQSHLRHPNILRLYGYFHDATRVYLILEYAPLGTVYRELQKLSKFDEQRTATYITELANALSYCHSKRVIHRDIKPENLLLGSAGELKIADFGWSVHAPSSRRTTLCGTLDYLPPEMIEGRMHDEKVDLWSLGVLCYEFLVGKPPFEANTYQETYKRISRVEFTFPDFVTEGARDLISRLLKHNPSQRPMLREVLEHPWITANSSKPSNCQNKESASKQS
Procedure: as §1

[3] = molecular target: T3, NUAK1 (Homo sapiens, UniProt O60285); assay: Counter-screen against NUAK1
T3 sequence (O60285 1-661): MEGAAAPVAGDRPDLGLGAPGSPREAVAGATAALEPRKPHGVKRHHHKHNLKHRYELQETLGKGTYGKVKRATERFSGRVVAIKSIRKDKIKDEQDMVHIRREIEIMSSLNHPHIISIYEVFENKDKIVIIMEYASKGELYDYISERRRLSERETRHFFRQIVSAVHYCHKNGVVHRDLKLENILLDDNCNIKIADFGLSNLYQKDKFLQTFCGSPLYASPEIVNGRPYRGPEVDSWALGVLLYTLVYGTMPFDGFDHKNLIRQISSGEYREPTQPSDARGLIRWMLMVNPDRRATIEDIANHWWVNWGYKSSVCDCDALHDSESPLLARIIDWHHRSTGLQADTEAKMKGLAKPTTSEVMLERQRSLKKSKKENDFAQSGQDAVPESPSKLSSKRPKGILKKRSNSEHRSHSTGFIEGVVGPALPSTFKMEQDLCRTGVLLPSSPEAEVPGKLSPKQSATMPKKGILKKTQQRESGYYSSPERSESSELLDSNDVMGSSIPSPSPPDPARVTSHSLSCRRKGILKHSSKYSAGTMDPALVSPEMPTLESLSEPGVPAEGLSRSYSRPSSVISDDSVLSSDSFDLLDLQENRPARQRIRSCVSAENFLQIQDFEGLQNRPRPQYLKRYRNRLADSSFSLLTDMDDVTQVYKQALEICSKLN
Procedure: as §1

Compound | IC50 [1] | IC50 [2] | IC50 [3]
COc1c(Nc2ncc(C(F)(F)F)c(Nc3cccc4c3C(=O)NC4)n2)ccc(N2CCCN(C)CC2)c1F [Compound I-38, 7-((2-((3-fluoro-2-methoxy-4-(4-methyl-1,4-diazepan-1-yl)phenyl)amino)-5-(trifluoromethyl)pyrimidin-4-yl)amino)isoindolin-1-one] | 0.1 to 10 nM | 101 to 1000 nM | 11 to 100 nM
COc1c(Nc2ncc(C(F)(F)F)c(Nc3cccc4c3C(=O)NC4)n2)ccc(N2CCC(N3CCNCC3)CC2)c1F [Compound I-39, 7-((2-((3-fluoro-2-methoxy-4-(4-(piperazin-1-yl)piperidin-1-yl)phenyl)amino)-5-(trifluoromethyl)pyrimidin-4-yl)amino)isoindolin-1-one] | 11 to 100 nM | 11 to 100 nM | 11 to 100 nM
O=C1NCc2cccc(Nc3nc(Nc4ccc(N5CCC(N6CCNCC6)CC5)cc4OC(F)F)ncc3C(F)(F)F)c21 [Compound I-40, 7-((2-((2-(difluoromethoxy)-4-(4-(piperazin-1-yl)piperidin-1-yl)phenyl)amino)-5-(trifluoromethyl)pyrimidin-4-yl)amino)isoindolin-1-one] | 0.1 to 10 nM | 101 to 1000 nM | 11 to 100 nM
CN1CCN(c2ccc(Nc3ncc(Cl)c(Nc4cccc5c4C(=O)NC5)n3)c(OC(F)(F)F)c2)CC1 [Compound I-41, 7-((5-chloro-2-((4-(4-methylpiperazin-1-yl)-2-(trifluoromethoxy)phenyl)amino)pyrimidin-4-yl)amino)isoindolin-1-one] | 11 to 100 nM | 101 to 1000 nM | 101 to 1000 nM
O=C1NCc2cccc(Nc3nc(Nc4ccc(N5CCNCC5)cc4OC(F)F)ncc3F)c21 [Compound I-42, 7-((2-((2-(difluoromethoxy)-4-(piperazin-1-yl)phenyl)amino)-5-fluoropyrimidin-4-yl)amino)isoindolin-1-one] | 11 to 100 nM | 101 to 1000 nM | 101 to 1000 nM
COc1cc2c(cc1Nc1ncc(F)c(Nc3cccc4c3C(=O)NC4)n1)CCNC2 [Compound I-43, 7-((5-fluoro-2-((7-methoxy-1,2,3,4-tetrahydroisoquinolin-6-yl)amino)pyrimidin-4-yl)amino)isoindolin-1-one] | 11 to 100 nM | 101 to 1000 nM | 101 to 1000 nM
COc1cc2c(cc1Nc1ncc(C(F)(F)F)c(Nc3cccc4c3C(=O)NC4)n1)CCNCC2 [Compound I-44, 7-((2-((8-methoxy-2,3,4,5-tetrahydro-1H-benzo[d]azepin-7-yl)amino)-5-(trifluoromethyl)pyrimidin-4-yl)amino)isoindolin-1-one] | 0.1 to 10 nM | 101 to 1000 nM | 101 to 1000 nM
COc1c(Nc2ncc(C(F)(F)F)c(Nc3cccc4c3C(=O)NC4)n2)ccc(N2CCC(N3CCN(C)CC3)CC2)c1F [Compound I-45, 7-((2-((3-fluoro-2-methoxy-4-(4-(4-methylpiperazin-1-yl)piperidin-1-yl)phenyl)amino)-5-(trifluoromethyl)pyrimidin-4-yl)amino)isoindolin-1-one] | 11 to 100 nM | 11 to 100 nM | 11 to 100 nM
COc1cc2c(cc1Nc1ncc(C(F)(F)F)c(Nc3cccc4c3C(=O)NC4)n1)CNCC21CC1 [Compound I-46, 7-((2-((6′-methoxy-2′,3′-dihydro-1′H-spiro[cyclopropane-1,4′-isoquinolin]-7′-yl)amino)-5-(trifluoromethyl)pyrimidin-4-yl)amino)isoindolin-1-one] | 0.1 to 10 nM | > 1000 nM | 11 to 100 nM
COc1cc2c(cc1Nc1ncc(OC)c(Nc3cccc4c3C(=O)NC4)n1)CCNC2 [Compound I-47, 7-((5-methoxy-2-((7-methoxy-1,2,3,4-tetrahydroisoquinolin-6-yl)amino)pyrimidin-4-yl)amino)isoindolin-1-one] | 11 to 100 nM | > 1000 nM | 101 to 1000 nM
